Data reported in ChEMBL document CHEMBL1149799, “Bioactive peroxides as potential therapeutic agents” (Eur J Med Chem, 2008).
Values after ≈ are worked out from the molar mass of the structure shown.

Tests used:
[1] = Cytotoxicity against human IGRO cells by soft agar assay; assay type: functional
[2] = tested on: BT-549; assay: Cytotoxicity against human BT549 cells by soft agar assay; assay type: functional
[3] = tested on: A549; assay: Cytotoxicity against human A549 cells; assay type: functional, cell-based; conditions: Homo sapiens, A549
[4] = tested on: MDA-MB-231; assay: Cytotoxicity against human MDA-MB-231 cells; assay type: functional, cell-based
[5] = tested on: HT-29; assay: Cytotoxicity against human HT29 cells; assay type: functional, cell-based; conditions: Homo sapiens, HT-29
[6] = tested on: P388; assay: Cytotoxicity against mouse P388 cells at 0.05 ug/ml; assay type: functional
[7] = tested on: HeLa; assay: Cytotoxicity against human HeLa cells; assay type: functional, cell-based
[8] = tested on: L1210; assay: Cytotoxicity against mouse L1210 cells; assay type: functional, cell-based; conditions: Mus musculus, L1210
[9] = Cytotoxicity against human LOX cells by soft agar assay; assay type: functional
[10] = tested on: MOLT-4; assay: Cytotoxicity against human MOLT4 cells by soft agar assay; assay type: functional
[11] = tested on: HL-60; assay: Cytotoxicity against human HL60 cells by soft agar assay; assay type: functional
[12] = tested on: KM12; assay: Cytotoxicity against human KM12 cells by soft agar assay; assay type: functional
[13] = tested on: A549; assay: Cytotoxicity against human A549 cells by soft agar assay; assay type: functional
[14] = tested on: 786-0; assay: Cytotoxicity against human renal 7860 cells by soft agar assay; assay type: functional
[15] = tested on: HCT-116; assay: Cytotoxicity against human HCT116 cells; assay type: functional, cell-based
[16] = tested on: KB; assay: Cytotoxicity against human KB cells; assay type: functional, cell-based; conditions: Homo sapiens, KB
[17] = tested on: P388; assay: Cytotoxicity against mouse P388 cells; assay type: functional, cell-based; conditions: Mus musculus, P388
[18] = Cytotoxicity against human MEL28 cells; conditions: SK-MEL-28
[19] = tested on: DU-145; assay: Cytotoxicity against human DU145 cells; assay type: functional, cell-based; conditions: Homo sapiens, DU-145

Question: With `C=C1CCC[C@H]2[C@](C)(CC[C@]3(C)CC[C@H]([C@@H](C)C(=O)O)OO3)[C@@H](C)CC[C@]12C` [SIGMOSCEPTRELLIN A] as the compound, how does the GI50 [1] read?
Answer: 0.12 µM

Question: What about the GI50 [2] of the same compound?
Answer: 0.96 µM

Question: With `CCCCC(CC)CC(C)C[C@]1(CC)C[C@H](CC)[C@H](CC(=O)O)OO1` (stereo partly specified) [PLAKORITIDE Q] as the compound, how does the IC50 [3] read?
Answer: 3.6 µM

Question: And the IC50 [4]?
Answer: 9 µM

Question: What about the IC50 [5] of the same compound?
Answer: 3.9 µM

Question: With `C/C=C/C=C/CCCCCCCCC[C@]1(OC)C=C[C@H](CC(=O)OC)OO1` as the compound, how does the inhibition at 0.05 µg/mL [6] read?
Answer: 50%

Question: For `C=C[C@@H](O)C#CC#C/C=C/C(CCCCCCC)OO` (stereo partly specified) [GINSENOYNE K], which IC50 [7] is on record?
Answer: 10.5 µg/mL (≈ 38 µM)

Question: And the IC50 [8]?
Answer: 1.8 µg/mL (≈ 6.51 µM)

Question: Which results are given for `C=C1CCCC(C)(C)C1CC[C@]1(C)CC[C@H]([C@@H](C)C(=O)OC)OO1` (stereo partly specified) [NUAPAPUIN B]?
Answer: GI50 [1]: 0.5 µM; GI50 [9]: 0.47 µM; GI50 [10]: > 5 µM

Question: With `CC1=C(CC/C(C)=C/CC[C@@]2(C)CC[C@@H]([C@H](C)C(=O)O)OO2)C(C)(C)CCC1` [EPIMUQUBILIN A] as the compound, how does the GI50 [11] read?
Answer: > 5 µM

Question: What about the GI50 [12] of the same compound?
Answer: > 5 µM

Question: What about the GI50 [13] of the same compound?
Answer: > 5 µM

Question: What about the GI50 [14] of the same compound?
Answer: > 5 µM

Question: And the GI50 [1]?
Answer: > 5 µM

Question: And the GI50 [9]?
Answer: > 5 µM

Question: And the GI50 [10]?
Answer: > 5 µM

Question: And the GI50 [2]?
Answer: > 5 µM

Question: Which inhibition at 0.05 µg/mL [6] does the source give for `C/C=C/C=C/CCCCCCC[C@]1(OC)C=C[C@H](CC(=O)OC)OO1` here?
Answer: 50%

Question: For `C[C@H](C(=O)O)[C@@H]1CC[C@@](C)(CC[C@@]2(C)C3=CCCC(C)(C)[C@@H]3CC[C@H]2C)OO1` [MYCAPEROXIDE H], which IC50 [7] is on record?
Answer: 0.8 µg/mL (≈ 2.04 µM)

Question: What does the source list for `C=C1CCCC(C)(C)C1CC[C@]1(C)CC[C@@H]([C@@H](C)C(=O)O)OO1` (stereo partly specified) [EPINUAPAPUIN B]?
Answer: GI50 [12]: > 5 µM; GI50 [13]: > 5 µM; GI50 [14]: > 5 µM; GI50 [1]: 1.73 µM; GI50 [10]: > 5 µM; GI50 [2]: > 5 µM

Question: For `CCCCC(CC)CC(C)C[C@]1(CC)C[C@H](CC)[C@H](CC(=O)OC)OO1` (stereo partly specified) [PLAKORITIDE Q ME], which IC50 [3] is on record?
Answer: 7.8 µM

Question: What about the IC50 [4] of the same compound?
Answer: 18.4 µM

Question: What about the IC50 [5] of the same compound?
Answer: 13 µM

Question: For `CC(CCCCCCCCc1ccccc1)CC(C)C[C@@]1(C)C[C@](C)(CC(=O)O)OO1` (stereo partly specified) [EPIPLAKINIC ACID G], which IC50 [15] is on record?
Answer: 0.16 µM

Question: Which IC50 [3] does the source give for `CC/C=C/C(CC)CC(C)C[C@]1(CC)C[C@H](CC)[C@H](CC(=O)OC)OO1` (stereo partly specified) here?
Answer: 6.8 µM

Question: What about the IC50 [4] of the same compound?
Answer: 4.1 µM

Question: What about the IC50 [5] of the same compound?
Answer: 12.8 µM

Question: With `CCCCCCCCCCCCCCC[C@@]1(OC)C=C[C@H](CC(=O)OC)OO1` [PLAKORIN] as the compound, how does the IC50 [16] read?
Answer: 1.8 µg/mL (≈ 4.52 µM)

Question: What about the IC50 [8] of the same compound?
Answer: 0.85 µg/mL (≈ 2.13 µM)

Question: What about the inhibition at 0.05 µg/mL [6] of the same compound?
Answer: 50%

Question: Which GI50 [11] does the source give for `C=C1CCCC(C)(C)C1(O)CC/C(C)=C/CC[C@]1(C)CC[C@H]([C@@H](C)C(=O)OC)OO1` (stereo partly specified) [EPIMUQUBILIN B] here?
Answer: > 5 µM

Question: And the GI50 [12]?
Answer: > 5 µM

Question: And the GI50 [13]?
Answer: > 5 µM

Question: And the GI50 [14]?
Answer: > 5 µM

Question: And the GI50 [1]?
Answer: > 5 µM

Question: And the GI50 [10]?
Answer: > 5 µM

Question: And the GI50 [2]?
Answer: > 5 µM

Question: Which IC50 [15] does the source give for `CC(CCCCCCCCc1ccccc1)CC(C)C[C@]1(C)C[C@](C)(CC(=O)O)OO1` (stereo partly specified) [EPIPLAKINIC ACID H] here?
Answer: 0.39 µM

Question: With `C/C=C/CCCCCCCCC[C@]1(OC)C=C[C@H](CC(=O)OC)OO1` as the compound, how does the inhibition at 0.05 µg/mL [6] read?
Answer: 50%

Question: For `C=C1CCCC(C)(C)C1CC[C@@]1(C)CC[C@H]([C@@H](C)C(=O)O)OO1` (stereo partly specified) [NAPAPUIN B], which GI50 [1] is on record?
Answer: 0.63 µM

Question: And the GI50 [9]?
Answer: 0.25 µM

Question: With `C=C1CCC[C@@H]2[C@@H](CC[C@@]3(C)CC[C@H]([C@H](C)C(=O)O)OO3)[C@H](C)CC[C@@]12C` [SIGMOSCEPTRELLIN B] as the compound, how does the GI50 [11] read?
Answer: 0.14 µM

Question: What about the GI50 [12] of the same compound?
Answer: 0.95 µM

Question: What about the GI50 [13] of the same compound?
Answer: 0.94 µM

Question: And the GI50 [14]?
Answer: 0.5 µM

Question: What about the GI50 [1] of the same compound?
Answer: 0.1 µM

Question: What about the GI50 [9] of the same compound?
Answer: 0.16 µM

Question: What about the GI50 [10] of the same compound?
Answer: 0.84 µM

Question: What about the GI50 [2] of the same compound?
Answer: 0.96 µM

Question: Which results are given for `C=C1CCCC(C)(C)C1(O)CC/C(C)=C/CC[C@]1(C)CC[C@@H]([C@@H](C)C(=O)OC)OO1` (stereo partly specified) [MUQUBILIN B]?
Answer: GI50 [11]: > 5 µM; GI50 [12]: > 5 µM; GI50 [13]: > 5 µM; GI50 [14]: > 5 µM; GI50 [1]: 2.42 µM; GI50 [9]: > 5 µM; GI50 [10]: > 5 µM

Question: With `C=CCC/C=C\C=C/CCCCCCCC[C@H]1CC[C@@H]([C@@H]2CC[C@@H](CC(=O)O)OO2)O1` [STOLONOXIDE A] as the compound, how does the IC50 [3] read?
Answer: 0.1 µg/mL

Question: And the IC50 [17]?
Answer: 0.01 µg/mL (≈ 0.023 µM)

Question: What about the IC50 [18] of the same compound?
Answer: 0.1 µg/mL (≈ 0.23 µM)

Question: What about the IC50 [19] of the same compound?
Answer: 0.1 µg/mL (≈ 0.23 µM)

Question: What about the IC50 [5] of the same compound?
Answer: 0.1 µg/mL

Question: What does the source list for `CCCC(CC)CC(C)C[C@]1(CC)C[C@H](CC)[C@H](CC(=O)OC)OO1` (stereo partly specified)?
Answer: IC50 [3]: 14 µM; IC50 [4]: 24.4 µM; IC50 [5]: 12.3 µM
